This note sets out measurements from ChEMBL document CHEMBL1201862, “PubChem BioAssay data set” (2004).

Among the test systems are COLO 205; SNB-75; SNB-19; TK-10; SF-539; NCI-H226; ACHN; U-251; HOP-92; SF-295; LOX IMVI; SF-268; RPMI-8226; MCF7; SK-OV-3; A549; OVCAR-3; UACC-62; SK-MEL-2; HCT-15.
Test in all cases: inhibition of tumour cell growth, NCI panel, 48 h

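These data come from cells grown in 96-well plates and exposed to compound for 48 hours at five concentrations. GI50: concentration for 50% inhibition of growth.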 Calls of active or inactive are those of the source. Cut-off read from the data, not from the text of the source: active = GI50 up to about 1.1 µM and inactive = higher.

`COC(=O)C1=CSC2(S1)C(C(=O)OC)=CSc1c2ssc1=O` (stereo unspecified): the GI50 with COLO 205 is 1.87 µM (inactive); with SNB-75, 3.22 µM (inactive); in the assay on SNB-19, 6.05 µM (inactive); in the assay with TK-10, 2.42 µM (inactive); with SF-539 it was 1.57 µM (inactive); with NCI-H226, 22.7 µM (inactive). In addition, the GI50 with ACHN was 1.87 µM (inactive); with U-251, 1.54 µM (inactive); in the assay on HOP-92, 2.07 µM (inactive); in the assay with SF-295, 16.3 µM (inactive); in the assay with LOX IMVI, 1.64 µM (inactive); with SF-268, 2.69 µM (inactive). Moreover, the GI50 in the assay with RPMI-8226 was 1.55 µM (inactive); in the assay with MCF7 it was 1.75 µM (inactive); in the assay on SK-OV-3 it was 9.42 µM (inactive); in the assay on A549, 7.43 µM (inactive); in the assay with OVCAR-3, 1.81 µM (inactive); in the assay with UACC-62, 1.96 µM (inactive). For the same molecule, the GI50 in the assay with SK-MEL-2 is 1.96 µM (inactive); in the assay on HCT-15, 1540 nM.
For `CNC(=O)CNC(=O)CCC(=O)N(C)C`, the GI50 with COLO 205, in the assay on SNB-75, in the assay on SNB-19, with TK-10, with SF-539 and with NCI-H226 was > 100 µM (inactive) each time. Also, the GI50 in the assay on ACHN, with U-251, with HOP-92, in the assay on SF-295, in the assay on LOX IMVI and in the assay on SF-268 was > 100 µM (inactive) throughout. For the same molecule, the GI50 in the assay with RPMI-8226, in the assay with MCF7, in the assay with SK-OV-3, in the assay on A549, in the assay on OVCAR-3 and in the assay on UACC-62 was > 100 µM (inactive) each time. Also, the GI50 is > 100 µM (inactive) with SK-MEL-2 and greater than 100000 nM with HCT-15.
Consider `CN(C)C(=O)OCOC(=O)N(C)C`, for which the GI50 with COLO 205 was > 100 µM (inactive); with SNB-75, > 82.8 µM (inactive); in the assay on SNB-19, > 100 µM (inactive); with SF-539, > 100 µM (inactive); with NCI-H226, > 100 µM (inactive); in the assay with U-251, > 100 µM (inactive). The GI50 in the assay on HOP-92 was > 92.5 µM (inactive); in the assay on SF-295, > 100 µM (inactive); in the assay on LOX IMVI, > 100 µM (inactive); in the assay on SF-268, > 100 µM (inactive); with RPMI-8226 it was > 100 µM (inactive); with MCF7, > 100 µM (inactive). In addition, the GI50 in the assay with SK-OV-3 is > 100 µM (inactive); in the assay with A549, > 100 µM (inactive); in the assay with OVCAR-3 it was > 100 µM (inactive); with UACC-62, > 100 µM (inactive); with SK-MEL-2 it was > 100 µM (inactive); with HCT-15, greater than 100000 nM.
For `COc1cc(C2c3cc4c(cc3[C@@H](Nc3ccc5c(c3)OCO5)C3COC(=O)[C@H]23)OCO4)cc(OC)c1O` (stereo partly specified), the GI50 is 1.68 µM (inactive) with COLO 205; 0.991 µM (active) with SNB-75; 0.299 µM (active) with SNB-19; 0.324 µM (active) in the assay on SF-539; 0.217 µM (active) with NCI-H226; 0.185 µM (active) with U-251. Moreover, the GI50 in the assay with HOP-92 is 0.424 µM (active); in the assay on SF-295, 0.213 µM (active); in the assay on LOX IMVI it was 0.456 µM (active); in the assay on SF-268, 0.953 µM (active); in the assay on RPMI-8226 it was 0.774 µM (active); with MCF7, 0.175 µM (active). For the same molecule, the GI50 in the assay with SK-OV-3 was 1.25 µM (inactive); in the assay on A549, 0.0294 µM (active); in the assay with OVCAR-3, 2.9 µM (inactive); in the assay with UACC-62, 0.322 µM (active); in the assay with SK-MEL-2 it was 2.4 µM (inactive); in the assay on HCT-15, 336 nM.
